According to article PMC9387934, “Randomized single oral dose phase 1 study of safety, tolerability, and pharmacokinetics of Iminosugar UV-4 Hydrochloride (UV-4B) in healthy subjects” (PLoS Neglected Tropical Diseases, 2022):
Where a name gives a salt, the structure may show the parent alone.

Experiment: Phase 1a single ascending dose study: UV-4 in pooled urine, urinary recovery and renal clearance
Assay type: in vivo, human
Settings: for CL renal: human, po; for Cumulative Amount Ae(0-last): corresponds to Ae(0-48); for Cumulative Percent fe(0-last): corresponds to fe(0-48)
Procedure: Serial blood samples were collected at pre-dose (0 hour) and 0.5, 1, 1.5, 2, 2.5, 3, 4, 6, 9, 12, 18, 24, 36, and 48 hours post-dose for assessment of UV-4 concentrations in plasma. Pooled urine samples were collected at pre-dose (-12 to 0 hour) and from 0 to 6, 6 to 12, 12 to 24, and 24 to 48 hours post-dose for assessment of UV-4 concentrations in urine. Plasma and urine concentrations of UV-4 were determined by means of validated, sensitive, and specific high-performance liquid chromatography/tandem mass spectrometric (LC-MS/MS) assays. UV-4 plasma and urine concentrations and PK parameters were listed and summarized by dose, as appropriate. Only the 48 subjects who received active investigational product were included in the PK analysis population.
8.2.3 Specimen Preparation, Handling, and Shipping
8.2.3.1 Instructions for Specimen Preparation, Handling, and Storage
The collected PK blood samples (2 mL) will be placed on ice after blood draw, and within 1 hour centrifuged at room temperature at approximately 3000 revolutions per minute for 15 minutes. Plasma will then be harvested and split into 4 aliquots of approximately 250 μ L and stored frozen at -20°C until shipped.
Urine samples (approximately 10 mL) for determination of UV-4 concentrations in urine will be taken from the total volume provided during each collection period. The total volume of each urine collection will be recorded along with the start/stop time for each urine collection interval.
Analysis of plasma and urine for UV-4 will be performed by the qualified bioanalytical laboratory, Quintiles Bioservices, Inc., Ithaca, New York 14950. Instructions for the proper preparation, handling, storage and shipping of specimens will be provided separately in a study-specific laboratory manual (i.e., Biopacket).
8.2.3.2 Specimen Shipment […]
The following single-dose urine PK parameters will be estimated from the UV-4 urine concentration-time data collected, as appropriate:
Ae Amount of UV-4 excreted in urine unchanged, calculated for each collection interval and cumulatively across intervals fe Fraction of UV-4 excreted in urine unchanged, calculated for each collection interval and cumulatively across intervals […]
Additional UV-4 PK parameters may be calculated at the discretion of the […]
Plasma concentrations and plasma and urine PK parameters will be summarized by treatment using descriptive statistics, as appropriate. Figures for the arithmetic mean (and SD) concentration-time data will be presented for all doses on both a linear and semi-logarithmic scale. Individual concentration-time data will be graphically presented on linear and semi-logarithmic scales. Scatter plots of individual and geometric mean PK parameters versus dose will be presented. Additional graphical presentations of PK data may be added at the discretion of the PK analyst.
Dose proportionality of Cmax, AUC(0-last), and AUC(0-inf) will be assessed graphically and statistically using the power model approach with the logarithm of PK parameters AUC(0-inf) and Cmax as the dependent variables and the logarithm of the dose as the independent variable: ([AUC(0-inf), AUC(0-last), or Cmax]=α *doseβ).
11.4.7 Deviation from Original Analysis Plan
Deviations from the formal statistical analysis plan will be noted in the final Clinical Study

[1] = urine, Cohort 1, 3 mg single oral dose, Ar Mean
[2] = urine, Cohort 1, 3 mg single oral dose, Median
[3] = urine, Cohort 2, 10 mg single oral dose, Ar Mean
[4] = urine, Cohort 2, 10 mg single oral dose, Median
[5] = urine, Cohort 3, 30 mg single oral dose, Ar Mean
[6] = urine, Cohort 3, 30 mg single oral dose, Median
[7] = urine, Cohort 4, 90 mg single oral dose, Ar Mean
[8] = urine, Cohort 4, 90 mg single oral dose, Median

For `COCCCCCCCCCN1C[C@H](O)[C@@H](O)[C@H](O)[C@H]1CO` [UV-4B, N-(9’-methoxynonyl)-1-deoxynojirimycin hydrochloride], the “fe(0-last)” value (3 mg single oral dose, Ar Mean) was 39.8%, the CL renal (both sexes, urine and plasma, 3 mg, 3 mg single oral dose, Ar Mean) was 242 mL/min and the CL renal (both sexes, urine and plasma, 3 mg, 3 mg single oral dose, Geo Mean) was 238 mL/min. It also gave a CL renal (both sexes, urine and plasma, 1000 mg, 1000 mg single oral dose, Ar Mean) of 198 mL/min, a CL renal (both sexes, urine and plasma, 1000 mg, 1000 mg single oral dose, Geo Mean) of 195 mL/min and a CL renal (both sexes, urine, 10 mg, 10 mg single oral dose, Geo Mean) of 190 mL/min. The CL renal (both sexes, urine, 30 mg, 30 mg single oral dose, Ar Mean) was 210 mL/min, the CL renal (both sexes, urine, 30 mg, 30 mg single oral dose, Geo Mean) was 208 mL/min and the CL renal (both sexes, urine, 90 mg, 90 mg single oral dose, Ar Mean) was 228 mL/min. For the same compound, the CL renal (both sexes, urine, 90 mg, 90 mg single oral dose, Geo Mean) was 227 mL/min, the CL renal (both sexes, urine, 180 mg, 180 mg single oral dose, Ar Mean) was 233 mL/min and the CL renal (both sexes, urine, 180 mg, 180 mg single oral dose, Geo Mean) was 232 mL/min. The CL renal (both sexes, urine, 360 mg, 360 mg single oral dose, Ar Mean) was 235 mL/min, the CL renal (both sexes, urine, 360 mg, 360 mg single oral dose, Geo Mean) was 228 mL/min and the CL renal (both sexes, urine, 720 mg, 720 mg single oral dose, Ar Mean) was 185 mL/min. For the same compound, the CL renal (both sexes, urine, 720 mg, 720 mg single oral dose, Geo Mean) was 182 mL/min, the CL renal (urine, 10 mg, 10 mg single oral dose, Ar Mean) was 195 mL/min and the “By-Interval Amount Ae(0-6)” value [1] was 0.607 mg. The “By-Interval Amount Ae(6-12)” value [1] was 0.215 mg, the “By-Interval Amount Ae(12-24)” value [1] was 0.202 mg and the “By-Interval Amount Ae(24-48)” value [1] was 0.170 mg. The “Cumulative Amount Ae(0-12)” value [1] was 0.822 mg, the “Cumulative Amount Ae(0-24)” value [1] was 1.02 mg and the “Cumulative Amount Ae(0-last)” value [1] was 1.19 mg. For the same compound, the “By-Interval Amount Ae(0-6)” value [2] was 0.624 mg, the “By-Interval Amount Ae(6-12)” value [2] was 0.216 mg and the “By-Interval Amount Ae(12-24)” value [2] was 0.230 mg. For the same compound, the “By-Interval Amount Ae(24-48)” value [2] was 0.173 mg, the “By-Interval Percent fe(0-6)” value [2] was 20.8% and the “By-Interval Percent fe(6-12)” value [2] was 7.19%. For the same compound, the “By-Interval Percent fe(12-24)” value [2] was 7.65%, the “By-Interval Percent fe(24-48)” value [2] was 5.75% and the “Cumulative Amount Ae(0-12)” value [2] was 0.892 mg. For the same compound, the “Cumulative Amount Ae(0-24)” value [2] was 1.08 mg, the “Cumulative Percent fe(0-12)” value [2] was 29.7% and the “Cumulative Percent fe(0-24)” value [2] was 36.0%. The “Cumulative Amount Ae(0-last)” value [2] was 1.23 mg, the “Cumulative Percent fe(0-last)” value [2] was 40.9% and the “By-Interval Amount Ae(0-6)” value [3] was 2.67 mg. The “By-Interval Amount Ae(6-12)” value [3] was 0.859 mg, the “By-Interval Amount Ae(12-24)” value [3] was 0.608 mg and the “By-Interval Amount Ae(24-48)” value [3] was 0.503 mg. For the same compound, the “By-Interval Percent fe(0-6)” value [3] was 26.7%, the “By-Interval Percent fe(6-12)” value [3] was 8.59% and the “By-Interval Percent fe(12-24)” value [3] was 6.08%. For the same compound, the “By-Interval Percent fe(24-48)” value [3] was 5.03%, the “Cumulative Amount Ae(0-12)” value [3] was 3.53 mg and the “Cumulative Amount Ae(0-24)” value [3] was 4.13 mg. The “Cumulative Percent fe(0-12)” value [3] was 35.3%, the “Cumulative Percent fe(0-24)” value [3] was 41.3% and the “Cumulative Amount Ae(0-last)” value [3] was 4.64 mg. For the same compound, the “Cumulative Percent fe(0-last)” value [3] was 46.4%, the “By-Interval Amount Ae(0-6)” value [4] was 2.77 mg and the “By-Interval Amount Ae(6-12)” value [4] was 0.883 mg. For the same compound, the “By-Interval Amount Ae(12-24)” value [4] was 0.635 mg, the “By-Interval Amount Ae(24-48)” value [4] was 0.503 mg and the “By-Interval Percent fe(0-6)” value [4] was 27.7%. The “By-Interval Percent fe(6-12)” value [4] was 8.83%, the “By-Interval Percent fe(12-24)” value [4] was 6.35% and the “By-Interval Percent fe(24-48)” value [4] was 5.03%. The “Cumulative Amount Ae(0-12)” value [4] was 3.71 mg, the “Cumulative Amount Ae(0-24)” value [4] was 4.34 mg and the “Cumulative Percent fe(0-12)” value [4] was 37.1%. For the same compound, the “Cumulative Percent fe(0-24)” value [4] was 43.4%, the “Cumulative Amount Ae(0-last)” value [4] was 4.82 mg and the “Cumulative Percent fe(0-last)” value [4] was 48.2%. For the same compound, the “By-Interval Amount Ae(0-6)” value [5] was 10.6 mg, the “By-Interval Amount Ae(6-12)” value [5] was 2.45 mg and the “By-Interval Amount Ae(12-24)” value [5] was 1.61 mg. For the same compound, the “By-Interval Amount Ae(24-48)” value [5] was 0.887 mg, the “By-Interval Percent fe(0-6)” value [5] was 35.3% and the “By-Interval Percent fe(6-12)” value [5] was 8.16%. For the same compound, the “By-Interval Percent fe(12-24)” value [5] was 5.36%, the “By-Interval Percent fe(24-48)” value [5] was 2.96% and the “Cumulative Amount Ae(0-12)” value [5] was 13.0 mg. The “Cumulative Amount Ae(0-24)” value [5] was 14.6 mg, the “Cumulative Percent fe(0-12)” value [5] was 43.4% and the “Cumulative Percent fe(0-24)” value [5] was 48.8%. For the same compound, the “Cumulative Amount Ae(0-last)” value [5] was 15.5 mg, the “Cumulative Percent fe(0-last)” value [5] was 51.7% and the “By-Interval Amount Ae(0-6)” value [6] was 10.5 mg. The “By-Interval Amount Ae(6-12)” value [6] was 2.47 mg, the “By-Interval Amount Ae(12-24)” value [6] was 1.55 mg and the “By-Interval Amount Ae(24-48)” value [6] was 0.96 mg. For the same compound, the “By-Interval Percent fe(0-6)” value [6] was 34.9%, the “By-Interval Percent fe(6-12)” value [6] was 8.24% and the “By-Interval Percent fe(12-24)” value [6] was 5.14%. For the same compound, the “By-Interval Percent fe(24-48)” value [6] was 3.20%, the “Cumulative Amount Ae(0-12)” value [6] was 12.9 mg and the “Cumulative Amount Ae(0-24)” value [6] was 14.6 mg. The “Cumulative Percent fe(0-12)” value [6] was 43.0%, the “Cumulative Percent fe(0-24)” value [6] was 48.7% and the “Cumulative Amount Ae(0-last)” value [6] was 15.5 mg. For the same compound, the “Cumulative Percent fe(0-last)” value [6] was 51.7%, the “By-Interval Amount Ae(0-6)” value [7] was 38.1 mg and the “By-Interval Amount Ae(6-12)” value [7] was 6.05 mg. For the same compound, the “By-Interval Amount Ae(12-24)” value [7] was 3.89 mg, the “By-Interval Amount Ae(24-48)” value [7] was 1.61 mg and the “By-Interval Percent fe(0-6)” value [7] was 42.2%. For the same compound, the “By-Interval Percent fe(6-12)” value [7] was 6.72%, the “By-Interval Percent fe(12-24)” value [7] was 4.32% and the “By-Interval Percent fe(24-48)” value [7] was 1.79%. The “Cumulative Amount Ae(0-12)” value [7] was 44.1 mg, the “Cumulative Amount Ae(0-24)” value [7] was 48.0 mg and the “Cumulative Percent fe(0-12)” value [7] was 49.0%. The “Cumulative Percent fe(0-24)” value [7] was 53.3%, the “Cumulative Amount Ae(0-last)” value [7] was 49.6 mg and the “Cumulative Percent fe(0-last)” value [7] was 55.1%. The “By-Interval Amount Ae(0-6)” value [8] was 39.3 mg and the “By-Interval Amount Ae(6-12)” value [8] was 6.36 mg.
